# Source: patent publication US20080004272A1, “Compositions and methods for modulating gated ion channels” (PainCeptor Pharma Corporation, priority 2006, published 2008)
# Legend:
# [1] = tested on: carrageenan-induced thermal hyperalgesia; assay: Carrageenan model, thermal hyperalgesia (Hargreaves' assay); format: in vivo; conditions: rat, 10 mg/kg s.c. 30 min prior to carrageenan, tested 2, 3 and 4 h post
# Experimental: Acute inflammatory hyperalgesia is induced in rats by unilateral injection of […] of a 3% solution of 1-carrageenan into the plantar surface of the left hind paw 2-4 h prior to testing. Thermal nociceptive thresholds are determined according to the method described elsewhere (Hargreaves et al., 1988). Briefly, through the glass surface, a radiant heat source (8 V, 50 W projector bulb) is focused onto the plantar surface of the hind paw. The rat's paw-withdrawal latency to this stimulus is recorded to the nearest 0.1 s. Each latency score is an average of three trials, which are separated by at least 5 min. In all rats, both the injured and uninjured hind paws are similarly tested, allowing direct comparisons between inflamed and non-inflamed paws.
# FIG. 5 illustrates the effect of Compound 203 (10 mg/kg s.c.) on the thermal hyperalgesia (observed in the Hargreaves' assay) resulting from an acute paw inflammation caused by the intraplantar injection of 150 μl of a 3% solution of λ-carrageenan. Compound 203 was given 30 min prior to carrageenan injection and thermal hyperalgesia was tested 2, 3, and 4 h post carrageenan injection.
# formalin-induced pain = assay: Formalin test, model of acute tonic pain; format: in vivo; conditions: rat; for Effect on pain intensity (flinching or licking behaviors): s.c. 30 min prior to formalin injection; for ED50: sc, s.c. 30 min prior to formalin, licking and biting episodes in phase IIa, read-out: ED50, effective dose where the pain score is reduced by half
# Experimental: Male Sprague-Dawley rats are housed together in groups of three animals under standard conditions with unrestricted access to food and water. All experiments are conducted according to the ethical guidelines for investigations of experimental pain in conscious animals (Zimmerman, 1983)
# Assessment of formalin-induced flinching behavior in normal, uninjured rats (body weight 150-180 g) is made with the use of an Automated Nociception Analyser (University of California, San Diego, USA). Briefly, this involves placing a small C-shaped metal band (10 mm wide×27 mm long) on the hindpaw of the rat to be tested. The rats (four rats are included in each testing session) are then placed in a cylindrical plexiglass observation chamber (diameter 30.5 cm and height 15 cm) for 20 min for adaptation purposes prior to being administered drug or vehicle according to the experimental paradigm being followed. After adaptation, individual rats are then gently restrained and formalin (5% in saline, 50 μl, s.c.) is injected into the plantar surface of the hindpaw using a 27G needle. Rats are then returned to their separate observation chambers, each of which are in turn situated upon an enclosed detection device consisting of two electromagnetic coils designed to produce an electromagnetic field in which movement of the metal band could be detected. […] A sampling interval of 1 min is used and on the basis of the resulting response patterns 5 phases of nociceptive behaviour are identified and scored: first phase (P1; 0-5 min), interphase (Int; 6-15 min), second phase (P2; […]), phase 2A (P2A; 16-40 min) and phase 2B (P2B; 41-60 min).
# Nociceptive behavior is also determined manually every 5 min by measuring the amount of time spent in each of four behavioral categories: 0, treatment of the injected hindpaw is indistinguishable from that of the contralateral paw; 1, the injected paw has little or no weight placed on it; 2, the injected paw is elevated and is not in contact with any surface; 3, the injected paw is licked, bitten, or shaken. A weighted nociceptive score, ranging from 0 to 3 is calculated by multiplying the time spent in each category by the category weight, summing these products, and dividing by the total time for each 5 min block of time. […] On the basis of the resulting response patterns, […] of nociceptive behavior are identified and scored: first phase (P1; 0-5 min), interphase (Int; 6-15 min), second phase (P2; […]), phase 2A (P2A; 16-40 min) and phase 2B (P2B; 41-60 min).
# Statistical analysis is performed using the Prism™ 4.01 software package (GraphPad, San Diego, Calif., USA). The difference in response levels between treatment groups and control vehicle group is analyzed using an ANOVA followed by Bonferroni's method for post-hoc pair-wise comparisons. […]
Structure (SMILES),Effect on thermal hyperalgesia [1],Effect on pain intensity (flinching or licking behaviors) (formalin-induced pain),ED50 (formalin-induced pain)
"CN1CCc2c(-c3ccccc3)cc(C#N)c(N)c2C1 [Compound 203, 8-Amino-2-methyl-5-phenyl-1,2,3,4-tetrahydro-isoquinoline-7-carbonitrile]",reduced the thermal hyperalgesia to level not significant to the control paw,dose-dependent reduction of the pain intensity,6 mg/kg
"COc1ccc(F)cc1-c1cc(C#N)c(N)c2c1CCN(C)C2 [Compound 206, 8-Amino-5-(5-fluoro-2-methoxy-phenyl)-2-methyl-1,2,3,4-tetrahydro-isoquinoline-7-carbonitrile]",,dose-dependent reduction of the pain intensity,50 mg/kg
